# Experimental data from patent US4883661A, “Use of arginine as an lymphokine synergist” (priority 1987, dated 1989).
# Experiments:
# [1] = given prior to or concomitantly with amino acids, glycine or ammonia; rats; cited from earlier work
# [2] = 1% in drinking water 6 days after the injury; cited from earlier work
# [3] = 30 g daily in divided doses for 1 week, human; cited from earlier work
# [4] = intraperitoneal, after 24 hour starvation, rats; cited from earlier work
# [5] = test system: peripheral blood lymphocyte; details: daily oral supplements (30 g), cited from earlier work
# [6] = test system: allolymphoblasts; experiment: Cytotoxic T lymphocyte (CTL) development, 4 hour chromium release, mice on dietary supplement; format: in vivo, CBA/J mice; details: for CTL cytotoxicity (% toxicity): 1% dietary supplementation at least 10 days, 4 hour chromium release assay, * p,0.05 Student's t test (ARG)
# Procedure: (§1) The effect of arginine on IL-2 dependent responses is shown by the following example. The effect of arginine on two IL-2 - dependent responses (T cell activation and cytotoxic T lymphocyte (CTL) development)and on interferon-influenced natural killer (NK) cell activity was evaluated.
# (§2) CBA/J mice (n=100) received 1% arginine (ARG) dietary supplementation o isonitrogenous glycine (GLY) for al least 10 days. CTL development was determined by sensitizing mice to BALB/C spleen cell alloantigen in vivo (×3 immunizations) and measuring cytotoxicity against allolymphoblasts as targets. Basal and Poly I:C - induced NK activity was measured against YAC targets. Using indirect immunofluorescence, IL-2 receptor expression (M7/20) on purified splenic T cells was determined 24 and 48 hours after con A activation. Results are presented in Table 1 wherein data are expressed as % toxicity in a 4 hour Chromium release assay (CTL and NK cells only) and % expression (IL-2). (*p,0.05 Student's T test)
# [7] = test system: C1300 neuroblastoma; experiment: Mixed lymphocyte tumor cell culture (MLTC), C1300 tumor bearing protein malnourished mice; format: in vivo, A/J mice; details: for MLTC Stimulation Index (d21): day 21
# Procedure: (§3) The effects of supplemental arginine (ARG) in the malnourished tumor bearing host were evaluated. […] Body weight, tumor weight and carcass weight were measured weekly and duration of survival was recorded. On day 10, specific T cell cytotoxicity was measured; concanavalin A (con A) stimulation of thymocytes and mixed lymphocyte tumor cell culture (MLTC) were measured on days 14 (d14) and 21(d21) (n=5/group).
# [8] = test system: C3HBA tumors; details: supplemented after tumor excision, cited from earlier work
# [9] = dietary supplement before and/or after wounding, rats; cited from earlier work
# [10] = Body weight and carcass weight, C1300 tumor bearing protein malnourished mice; format: in vivo, A/J mice; details: for total body weight and mean carcass weight: compared with LPD mice
# Procedure: as §3
# [11] = dietary arginine, young growing rat; cited from earlier work
# [12] = test system: thymus; details: cited from earlier work
# [13] = test system: IL-2 receptor; experiment: IL-2 receptor expression (M7/20) on purified splenic T cells after con A activation, indirect immunofluorescence; format: in vivo, CBA/J mice; details: for IL 2 (24 hr) receptor expression (% expression): 24 hours after con A activation; for IL 2 (24 hr) receptor expression (% expression) / IL 2 (48 hr) receptor expression (% expression): * p,0.05 (ARG); for IL 2 (48 hr) receptor expression (% expression): 48 hours after con A activation
# Procedure: as §1, §2
# [14] = test system: YAC targets; experiment: Basal and Poly I:C-induced natural killer (NK) activity, 4 hour chromium release, mice on dietary supplement; format: in vivo, CBA/J mice; details: for NK(Induced) activity (% toxicity): Poly I:C-induced, * p,0.05 (ARG); for NK(Induced) activity (% toxicity) / NK(basal) activity (% toxicity): 1% dietary supplementation at least 10 days, YAC targets, 4 hour chromium release
# Procedure: as §1, §2
# [15] = humans, mainly liver disease; cited from earlier work
# [16] = test system: lymphocytes; details: in vitro incubation in media with higher amounts of arginine; cited from earlier work
# [17] = test system: C1300 neuroblastoma; experiment: Tumor growth and survival, C1300 neuroblastoma in protein malnourished mice; format: in vivo, A/J mice; details: for median survival: ARG p<0.001 compared with GLY and LPD (LPD, 29 days)
# Procedure: as §3
# [18] = test system: breast adenocarcinoma (C3HBA); details: rats; cited from earlier work
# [19] = test system: thymocytes; experiment: Concanavalin A stimulation of thymocytes, C1300 tumor bearing protein malnourished mice; format: in vivo, A/J mice; details: mean ± SD, * p<0.001, low protein diet + 1% supplement
# Procedure: as §3
# [20] = test system: C1300 neuroblastoma; details: mouse, in vivo
# Procedure: Body weight, tumor weight and carcass weight were measured weekly and duration of survival was recorded. On day 10, specific T cell cytotoxicity was measured; concanavalin A (con A) stimulation of thymocytes and mixed lymphocyte tumor cell culture (MLTC) were measured on days 14 (d14) and 21(d21) (n=5/group).
# [21] = mean ± SD, low protein diet + 1% supplement
smiles,measurement,setting,value
"NC(=O)NCCC[C@H](N)C(=O)O [citrulline, reference compound]",protection against toxic effects of hyperammonemia,[1],"share the ""detoxifying"" effects of arginine"
Cl.N=C(N)NCCC[C@H](N)C(=O)O [arginine HCl],recovery,[2],100%
same,weight loss after injury,[2],reversed the weight loss
same,untoward effects,[3],no untoward effects except for mild gastrointestinal discomfort
same,LD50,[4],3800 mg/kg
same,peripheral blood lymphocyte blastogenesis,[5]; healthy volunteers,increased
same,time until blastogenesis effect is evident,[5],≤ 3 days
"N=C(N)NCCC[C@H](N)C(=O)O [ARG, arginine]",CTL cytotoxicity (% toxicity),[6],69 ± 15%
same,"CTL activity, in words",[6]; supplemental arginine,significantly augmented
same,MLTC Stimulation Index (d21),[7]; [21],2.2 ± 1.3
same,immune responses in tumor bearing protein malnourished mice,[7]; supplemental ARG,augmented immune responses
same,survival time of mice which subsequently developed tumors,[8],prolonged survival time
same,tumor recurrence rate,[8]; without supplement 100% recurrence,30%
same,wound healing,[9],accelerated
same,total body weight and mean carcass weight,[10],significantly preserved
same,host nutritional status,[10]; supplemental ARG,preserved
same,growth,[11],more rapid growth
same,lymphocyte content of the thymic glands,[12]; in vivo,significant increases
same,thymic involution with injury,[12]; injured,minimizes the thymic involution
same,blastogenesis of the lymphocytes in response to mitogens,[12]; thymic,significant enhancement
same,thymic weight,[12]; uninjured rats and mice,increases thymic weight
same,IL 2 (24 hr) receptor expression (% expression),[13],52 ± 4%
same,IL 2 (48 hr) receptor expression (% expression),[13],59 ± 6%
same,"IL-2 receptor kinetics, in words",[13]; supplemental arginine,enhanced
same,NK(Induced) activity (% toxicity),[14],43 ± 12%
same,NK(basal) activity (% toxicity),[14],19 ± 5%
same,"inducible NK activity, in words",[14]; supplemental arginine,significantly augmented
same,"therapeutic effect, elevated blood ammonia",[15],ranged from excellent to minimal
same,blastogenic responses in vitro,[16],does not lead to greater blastogenic responses
same,median survival,[17],38 days
same,"median survival, in words",[17]; p<0.001 compared with GLY and LPD mice,prolonged
same,tumor growth,"[17]; p<0.05, compared with GLY and LPD mice",retarded tumor growth
same,protection against toxic effects of hyperammonemia,[1],abrogated
same,tumor appearance,[18],slowed tumor appearance
same,tumor incidence,[18],reducing tumor incidence
"NCC(=O)O [GLY, glycine, reference compound]",ConA Stimulation Index (d21),[19]; day 21,24.9 ± 5
same,ConA Stimulation Index,[19]; first ConA column (d14 per text),38.4 ± 7
same,CTL cytotoxicity (% toxicity),[6],54 ± 14%
same,MLTC Stimulation Index (d14),"[7]; day 14, mean ± SD, * p<0.001, low protein diet + 1% supplement",3.3 ± 0.9
same,MLTC Stimulation Index (d21),[7]; [21],2.5 ± 0.8
same,total body weight and mean carcass weight,[10],significantly preserved
same,Cytotoxicity,[20],15 ± 1.4%
same,IL 2 (24 hr) receptor expression (% expression),[13],30 ± 4%
same,IL 2 (48 hr) receptor expression (% expression),[13],46 ± 45%
same,NK(Induced) activity (% toxicity),[14],24 ± 14%
same,NK(basal) activity (% toxicity),[14],13 ± 4%
same,median survival,[17],30 days
